The subject of one series is splenocytes. In words: Tumor antigen-specific IFN-γ production in splenocytes (Trp2, GP100 & Tyr peptides). It is filed as in vivo, mice. The note with it: two IT doses, day 4, FIG. 13G. How it is done:
FIG. 13B provides representative H&E stained images from PBS, CDN2 (20 μg), and exoCDN2 (0.12 μg) treated samples. FIG. 13C is a table showing the number of complete responders by histopathological analysis. […] FIG. 13F is a graphical representation of tumor growth after CD8 T cell depletion in B16F10 tumor bearing mice following administration of the IgG (10 mg/kg) or anti-CD8 antibody (10 mg/kg) intraperitoneally, one day before IT injection (n=5 per group). Blue arrows indicate intraperitoneal injection days (FIG. 13F). […] Data are presented as means±s.e.m.
We next evaluated the capacity of exoSTING to induce systemic, antigen specific T cell responses in the B16F10 tumor model. Several tumor-associated CD8-dependent antigens have been identified as dominant antigens from B16F10 tumor cells (Kreiter et al., Nature 520, 692-696 (2015), which is incorporated by reference herein in its entirety).

The next series concerns B16F10 tumors. Put plainly: Histology of injected B16F10 tumors (H&E, IFN-β mRNA, CD8, F4/80). Type of series: in vivo. The note with it: free CDN2 20 μg, exoSTING 0.1 μg, 4 and 24 hours after two injections, FIG. 15A.
Series [1] relates to CD8+ T cells and XCR1+ DCs in B16F10 tumors. In words: Flow cytometry of B16F10 tumors after two IT injections. It is filed as in vivo, mice. The note with it: 20 μg, FIG. 15D. The procedure: FIG. 15 is a graphical representation of IFN-β positive area. FIG. 15C is a graphical representation of CD8 positive cells. FIGS. 15D-15E are graphical representations of the percentage of CD8 T cells in live CD45^+ cells in tumors (FIG. 15D) and CD86 expression on dendritic cells (FIG. 15E) as measured by flow cytometry after 2 doses of PBS, CDN2 (20 μg), and exoCDN2 (0.2 μg) into B16F10 tumors (n=5 per group). *, P<0.05; **, P<0.01; ****, P<0.0001 by one-way ANOVA with Tukey's multiple comparison test; n.s., non-significant.
We also assessed CD8^+ T cell and XCR1^+ DC activation after two IT injections of exoSTING and free CDN2 by flow cytometry. […] This increase in CD8^+ T cell is consistent with the increased CXCL9 and CXCL10 production following exoSTING treatment (FIGS. 14D and 14E). […] The enhanced activation of this DC subset seen with exoSTING but to a lesser degree with free CDN, is consistent with the observed superiority of anti-tumor activity of exoSTING in the B16F10 model (FIGS. 12 and 13).
For orientation: Flow cytometry measures light scatter and fluorescence of single cells or particles in a stream.

The nature of series [2]: CDN in plasma / systemic circulation after IT injection, LC-MS/MS. Type of series: in vivo, C57BL/6 mice. The procedure:
(§1) C57BL/6 mice were implanted subcutaneously with 1×10^6 B16F10 cells. FIGS. 14A and […] are graphical representations showing the concentration of CDN2 in tumors (FIG. 14A) and plasma (FIG. 14B) as measured by LC-MS/MS at 5 minutes, 30 minutes, 2 hours, 6 hours, 24 hours, and 48 hours after single IT injection (n=3 per group at each time point) in C57BL/6 mice implanted subcutaneously with 1×10^6 B16F10 cells. FIGS. 14C-14E are graphs showing the relative expression of IFN-β (FIG. 14C), CXCL9 (FIG. 14D), and CXCL10 (FIG. 14E) genes as measured by RT-qPCR, normalized against the housekeeping gene RPS13. FIGS. 14F-14H are graphs showing serum levels of IFN-β (FIG. 14F), TNF-α (FIG. 14G), and IL-6 (FIG. 14H) (n=5 per group). Data are presented as means±s.e.m. *, P<0.05; **, P<0.01; ***, P<0.001; ****, P<0.0001 by one-way ANOVA with Tukey's multiple comparison test.
(§2) A major limitation of IT administration of free CDN is its rapid dissemination into the systemic circulation (see Sivick et al., Cell Rep. 25, 3074-3085.e5 (2018)). […] This reduces the effectiveness of the CDN to elicit a productive immune response in the tumor resulting in higher doses of free CDN required for efficacy. In B16F10 tumors after injection of exoSTING or free CDN, we measured the amount of CDN in tumors and blood over time.
Further, free CDN2 is cleared rapidly in the systemic circulation (106 mL/hr).

The test system of a further series is naïve T cells. Put plainly: IFN-β production in naïve T cells. Type of series: cell-based, human. The text has this:
(§3) Next, we characterized the effect of exoSTING for free CDN on naïve or TCR stimulated T cells. We purified T cells and treated them with a dose titration of exoSTING or free CDN and compared IFNβ production in the presence or absence of TCR stimulation. […] We next characterized induction of T cell death using Cytotox dye staining following exoSTING or free CDN2 treatment in T cells stimulated with anti-CD3 and anti-CD28. Following free CDN2 treatment, we observed a dose dependent increase in T cell death (up to ~20% of T cells) as measured by Cytotox dye staining (FIG. 17G). […] Importantly, exoSTING preserves the viability of TCR stimulated T cells.

The test system of series [3] is T cells stimulated by anti-CD3 and anti-CD28. In words: IFN-β production in T cells stimulated by anti-CD3 and anti-CD28. Type of series: cell-based, human. The note with it: FIG. 17F.
Excerpt: (§4) FIGS. 17F and 17G show representative dose-response curves of IFN-β production (FIG. 17F) and cytotoxicity (FIG. 17G) in stimulated T cells after treating with free CDN2 and exoCDN2. T cells were purified from human PBMCs and stimulated with anti-CD3/anti-CD28.
as §3

The next series has as its system B16F10 tumor. Put plainly: B16F10 subcutaneous tumor growth after intratumoral injection. It is filed as in vivo, C57BL/6 mice. The note with it: 0.1 μg CDN2, IT, FIG. 12F. How it is done:
C57BL/6 mice were implanted subcutaneously with 1×10^6 B16F10 cell on right flank of mice. Additional implantation of tumors is specified in each legend. When tumor volumes reached 50-100 mm^3, testing agents were injected intratumorally 3 times with 3 days interval. Red arrows in the graph indicate IT injection days. Tumor growth were measured over time. n=5 per group. […] RLU: Relative Luminescent Unit. ****, P<0.0001 by two-way ANOVA with Tukey's multiple comparison test for tumor growth studies. Data are presented as means±s.e.m. (FIGS. 12D-12F).
Data are presented as means±s.e.m. RLU: Relative Luminescent Unit. […]
We have previously identified and characterized exosome-specific surface glycoproteins using unbiased proteomic analysis and identified the immunoglobulin super family member PTGFRN as a protein that is enriched on human exosomes and contains nine predicted N-linked glycosylation sites (see Dooley et al., Cancer Res. 79(13 Suppl), Abstract nr 2150 (2019), which is incorporated by reference herein in its entirety). […] These populations of exosomes were next examined for their capacity activate STING pathway as measured by IFN-β production. […] EC50 values and maximal IFN-β cytokine production (Cmax) were assessed from multiple donors. […]

Series [4] deals with T cells stimulated with anti-CD3 and anti-CD28. It is filed as cell-based, human. The note with it: FIG. 17G.
Excerpt: as §4, §3

Series [5] is described as follows: Pharmacokinetics of CDN in injected B16F10 tumors, LC-MS/MS. It is filed as in vivo, C57BL/6 mice. The note with it: injected tumor. How it is done:
as §1, §2

In series [6] the test system is global gene expression in B16F10 tumors. Put plainly: RNA sequencing of B16F10 tumors after 1 or 2 IT injections. Type of series: in vivo, mice. The note with it: after 2 doses, exoSTING 0.1 μg, free CDN2 20 μg, FIG. 16E. The procedure: FIGS. 16A-16C are box plots showing the relative expression of IFN-β (FIG. 16A), CD274 (FIG. 16B), and CXCL9 (FIG. 16C) as measured by NanoString in RNA samples collected four hours after IT injection of PBS, CDN2 (0.1, 20, or 100 μg), and exoCDN2 (0.001, 0.01, or 0.1 μg) into B16F10 tumors. Data are presented as means±s.e.m. *, P<0.05; **, P<0.01; ***, P<0.001; ****, P<0.0001 by one-way ANOVA with Tukey's multiple comparison test. […] All genes were compared to PBS treatment. […] Adjusted P values are indicated.
To further characterize the immune pathway activation, we evaluated the global gene expression changes after 1 or 2 IT injections of efficacious doses of exoSTING (0.1 μg) and free CDN2 (20 μg) by RNA sequencing. All samples were compared to PBS treatment. […] Tcf7 (which encodes TCF1) is a key transcription factor expressed in the stem-like progenitor CD8^+ T cells (Siddiqui et al., Immunity. 50, 195-211.e10 (2019)). This cell subset is required for response to checkpoint inhibitor therapies. (Siddiqui, 2019). […] This loss may underlie the lack of immunological memory response to free CDN.
In contrast, high doses of free CDN decrease the expression of these key genes as well as reducing the expression of APC markers.

The test system of another series is human PBMC. In words: IFN-β production in human PBMC supernatant. The note with it: FIG. 12A. Type of series: cell-based.

The results in this text go back to patent US12728098B2, “Methods of producing extracellular vesicles” (LONZA SALES AG, priority 2019, dated 2026).

Broadly, the pEC50 is the EC50 on a negative log10 scale, so that one unit is a factor of ten. The AUC is the area under the concentration-time curve, a measure of exposure.

SMILES strings stand for the structures. pEC50: −log10 of the molar value.

Description for human PBMC: We compared the activity of co-administered exosomes and free CDN with exoSTING in in vitro PBMC assays.
These populations of exosomes were next examined for their capacity activate STING pathway as measured by IFN-β production. […] These CDN-loaded exosomes were assayed in vitro for their potential to induce IFN-β production in PBMC cultures. EC50 values and maximal IFN-β cytokine production (Cmax) were assessed from multiple donors.

For `Nc1ncnc2c1ncn2[C@@H]1O[C@@H]2COP(O)(=S)O[C@@H]3C(O)[C@@H](COP(O)(=S)O[C@H]2[C@H]1O)O[C@H]3n1cnc2c(N)ncnc21` (some centres unmarked) [CDN1, ML RR-S2], the “increase in the number of IFN-γ positive spots compared to PBS control” value with splenocytes (0.2 μg) is given as “failed to induce IFN-γ positive spots”. Moreover, in the series on splenocytes (20 μg), the “IFN-γ positive spots compared to PBS control” value is listed as “failed to induce IFN-γ positive spots”.
Consider `Nc1ncnc2c1ncn2[C@@H]1O[C@@H]2COP(O)(=S)O[C@H]3[C@@H](F)[C@H](n4cnc5c(=O)[nH]cnc54)O[C@@H]3COP(O)(=S)O[C@H]2[C@H]1F` (some centres unmarked) [CDN2, cAIM(PS)2 Difluor (Rp/Sp)], for which the “tissue damage by H&E staining” value in the series with B16F10 tumors is “significant evidence of tissue damage in the skin and tumor cell death”. The “number of viable CD8+ T cells compared PBS control” value in [1] is listed as “significantly decreased”. Also, in series [2] (30 μg IT), the “detection in the plasma at the 30-minute timepoint” value is given as “detectable in the plasma”. The “clearance in the systemic circulation” value in series [2] (free CDN2 after IT injection (30 μg)) amounted to 106 mL/h. Moreover, the IFN-β production result with naïve T cells is listed as “no IFN-β production was observed”. For the same molecule, the pEC50 in [3] is around 5.09. In the series on B16F10 tumor, the tumor growth entry is “Neither free CDN2 (0.1 μg) or co-administered PTGFRN^+/+ exosomes mixed with free CDN2 (0.1 μg) resulted in measurable tumor growth inhibition”. Also, in [4], the “T cell death by Cytotox dye staining (maximum, dose dependent)” value is given as ~ 20 % of T cells. Also, in [5] (0.3 μg single IT), the AUC stood at 799 ng·h/mL, the CL was determined as 0.375 mL/h, the Cmax is reported as 1,240 ng/mL and the T1/2 turned out to be 0.620 h. Also, in series [5] (30 μg single IT), the AUC is on record as 97,300 ng · hr/mL, the CL was determined as 0.308 mL/h, the Cmax is recorded as 13,800 ng/mL and the T1/2 came to 2.05 h. For the same molecule, the Tcf7 levels entry in [6] is “decrease in Tcf7 levels”. The molecule further showed a negative-log EC50 (pEC50) in the series with human PBMC of around 5.01.
